Structures can show the parent of a compound that is named as a salt.

Data set [1] has as its target full-length FLAG-tagged B-Raf(V600E) (Homo sapiens (Human), UniProt P15056, V600E). In words: BRAF V600E enzyme assay (TR-FRET competitive displacement). Format: binding. As to conditions: averaged IC50; TR-FRET tracer displacement, 60 min. The method in brief:
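TR-FRET tracer competition: compound (top dose 10 μM, 3-fold, 11 points) incubated 60 min at ambient temperature with FLAG-tagged full-length B-Raf(V600E) (5 nM), Eu anti-FLAG cryptate (0.5 nM) and tracer (50 nM), pH 7.4 HEPES/MgCl2 buffer. 665/615 ratio converted to percent of control; IC50 where fitted curve crosses 50 POC.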
A general note: Time-resolved FRET reads energy transfer from a long-lived donor to a nearby acceptor.

The test system of the next data set is A375 cells. In words: Cellular phospho-ERK inhibition assay in A375 cells. Format: cell-based. The conditions noted are these: Homo sapiens, A-375, A375 cells (head prints A357), 2 hours treatment, read-out: A357 cell IC50. The method in brief: (§1)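 In Cell Western detection of phospho-ERK1/2 (Thr202/Tyr204) over GAPDH after 2 h compound exposure (66 pM to 10 μM, 9 points, 0.25% DMSO) of A375 cells in DMEM or H1755 cells in RPMI, both with 10% FBS. Percent of control set by DMSO and 10 μM binimetinib; 4-parameter IC50.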

The next data set relates to H1755 cells. In words: Cellular phospho-ERK inhibition assay in H1755 cells. As to conditions: Homo sapiens, NCI-H1755, 2 hours treatment, read-out: H1755 Cell IC50. The data set is classed as cell-based. The method in brief:
as §1

A short description of data set [2]: MDR1 LLC-PK1 and BCRP MDCKII permeability assay: permeability coefficient (Papp). The data set is classed as in vitro ADME. The text has this:
(§2) Final organic concentration in the assay was 1%.

In a further data set the target is P-gp (MDR1) (Homo sapiens (Human), UniProt P08183). Description: MDR1 LLC-PK1 permeability assay: efflux ratio. Format: in vitro ADME. The conditions noted are these: pig.
From the text: as §2

The target of a further data set is BCRP (Homo sapiens (Human), UniProt Q9UNQ0). Description: BCRP MDCKII permeability assay: efflux ratio. Format: in vitro ADME. As to conditions: dog.
A short description of data set [3]: PK (free brain-to-free plasma ratio) (mouse). Format: in vivo. As to conditions: male CD-1 mice, oral gavage 10 mg/kg, unbound brain-to-unbound plasma, read-out: B/P ratio (free). As to the method:
The ability of representative compounds to penetrate the BBB in mice was determined by evaluating the unbound brain-to-unbound plasma (also referred to as free brain-to-free plasma) concentration ratio in male CD-1 mice.
Brain compound levels were generated from oral mouse PK dosing with typical sampling times of 2, 4, 8, 12 and 24 hours post oral gavage dosing at 10 mg/kg. Brain samples were stored at −20±5° C. prior to analysis. Concentrations of test compound in mouse brain homogenate were determined by liquid chromatography tandem mass spectrometry (LC-MS/MS) following protein precipitation with acetonitrile. A 12-point calibration curve, ranging from 0.5 to 10,000 ng/mL, was prepared in duplicate. A solution of 400 μg/mL of test compound in dimethyl sulfoxide (DMSO) was serially diluted (3-fold) in 100% DMSO, and then 2.5 μL of each standard solution was added to 100 μL of naïve male CD-1 mice brain homogenate. To mimic the extraction in the standard curve, 2.5 μL of DMSO was added to all test samples. Both calibration and test brain homogenate samples were spiked with 10 μL of an IS (1 μg/mL of a structural analog). Brain homogenate was generated by adding 0.75 mL of 4:1 water:MeOH to each brain sample followed by homogenization for 1 minute with bead beater tubes a 6 m/s using an MP Fast Prep-24®. Proteins were precipitated from 100 μL of brain homogenate sample by the addition of 300 μL of acetonitrile. Samples were vortex-mixed for 5 minutes and spun in an Allegra X-12R centrifuge (Beckman Coulter, Fullerton, CA; SX4750A rotor) for 15 min at approximately 1,500×g at 4° C. A 100 μL aliquot of each supernatant was transferred via a 550 μL Personal Pipettor (Apricot Designs, Monrovia, CA) to 96-well plates and diluted 1:1 with HPLC grade water. The resulting plates were sealed with aluminum for LC-MS/MS analysis.
Brain-to-plasma ratios were calculated using the concentration of compound measured in the brain divided by the concentration of compound measured in the plasma. Brain-to-plasma ratios were always generated from a single animal and time point. Free brain-to-free plasma ratios were calculated by multiplying the brain-to-plasma ratio by the in vitro brain homogenate free fraction divided by the in vitro plasma free fraction using the following equation: (B/P)*(Bfu/Pfu). Table C provides the free brain-to-free plasma ratios of compounds disclosed herein.

P-gp (MDR1), sequence (P08183 whole entry, species assumed): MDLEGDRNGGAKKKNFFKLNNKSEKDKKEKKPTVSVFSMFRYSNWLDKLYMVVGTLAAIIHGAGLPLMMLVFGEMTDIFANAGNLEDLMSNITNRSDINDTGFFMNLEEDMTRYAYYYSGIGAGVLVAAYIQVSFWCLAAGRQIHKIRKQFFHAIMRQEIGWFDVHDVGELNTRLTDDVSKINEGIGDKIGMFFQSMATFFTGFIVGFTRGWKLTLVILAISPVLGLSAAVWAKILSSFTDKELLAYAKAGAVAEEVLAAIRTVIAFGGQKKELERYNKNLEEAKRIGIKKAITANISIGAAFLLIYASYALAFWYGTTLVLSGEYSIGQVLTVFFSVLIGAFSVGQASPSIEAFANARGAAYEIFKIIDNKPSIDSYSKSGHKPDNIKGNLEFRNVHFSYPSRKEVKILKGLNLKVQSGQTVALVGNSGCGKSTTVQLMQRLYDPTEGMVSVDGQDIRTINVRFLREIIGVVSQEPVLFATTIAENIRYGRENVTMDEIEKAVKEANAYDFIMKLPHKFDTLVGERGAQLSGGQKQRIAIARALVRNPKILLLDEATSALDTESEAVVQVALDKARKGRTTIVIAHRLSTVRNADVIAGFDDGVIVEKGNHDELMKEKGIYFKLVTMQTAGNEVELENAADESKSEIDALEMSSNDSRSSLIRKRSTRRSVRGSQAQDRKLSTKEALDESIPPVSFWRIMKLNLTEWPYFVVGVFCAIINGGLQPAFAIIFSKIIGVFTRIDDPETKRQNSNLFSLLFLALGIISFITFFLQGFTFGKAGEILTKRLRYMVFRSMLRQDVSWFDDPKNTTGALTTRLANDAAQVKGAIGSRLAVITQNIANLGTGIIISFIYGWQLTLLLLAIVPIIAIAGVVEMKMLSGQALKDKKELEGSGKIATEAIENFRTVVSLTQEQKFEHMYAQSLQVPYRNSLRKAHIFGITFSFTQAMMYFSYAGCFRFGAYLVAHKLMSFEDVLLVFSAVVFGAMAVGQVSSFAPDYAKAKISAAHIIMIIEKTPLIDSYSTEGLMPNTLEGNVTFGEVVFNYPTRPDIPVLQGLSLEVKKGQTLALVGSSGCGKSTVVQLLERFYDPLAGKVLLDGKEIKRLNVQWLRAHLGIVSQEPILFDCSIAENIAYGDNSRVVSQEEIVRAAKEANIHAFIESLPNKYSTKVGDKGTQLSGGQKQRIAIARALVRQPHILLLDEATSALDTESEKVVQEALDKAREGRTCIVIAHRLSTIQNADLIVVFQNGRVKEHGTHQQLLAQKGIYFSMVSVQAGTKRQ
BCRP, sequence (Q9UNQ0 whole entry): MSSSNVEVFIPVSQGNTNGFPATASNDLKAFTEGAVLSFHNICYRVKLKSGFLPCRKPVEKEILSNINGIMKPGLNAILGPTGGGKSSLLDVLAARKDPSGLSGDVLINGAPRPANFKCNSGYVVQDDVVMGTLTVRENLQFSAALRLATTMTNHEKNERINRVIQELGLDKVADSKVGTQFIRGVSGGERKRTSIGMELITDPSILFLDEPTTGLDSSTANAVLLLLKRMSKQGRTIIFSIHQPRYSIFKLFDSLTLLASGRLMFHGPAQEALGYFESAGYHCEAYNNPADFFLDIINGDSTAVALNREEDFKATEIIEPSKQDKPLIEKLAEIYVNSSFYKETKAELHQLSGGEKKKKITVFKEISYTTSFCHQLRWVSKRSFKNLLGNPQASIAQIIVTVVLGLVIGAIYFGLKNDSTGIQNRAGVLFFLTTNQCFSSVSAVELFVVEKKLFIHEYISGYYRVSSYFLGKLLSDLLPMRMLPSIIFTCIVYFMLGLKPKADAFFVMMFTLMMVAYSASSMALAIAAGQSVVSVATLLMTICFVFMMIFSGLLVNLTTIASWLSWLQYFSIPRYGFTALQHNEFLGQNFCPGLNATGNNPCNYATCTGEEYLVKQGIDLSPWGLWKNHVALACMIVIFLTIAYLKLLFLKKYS
full-length FLAG-tagged B-Raf(V600E), sequence (P15056 whole entry V600E): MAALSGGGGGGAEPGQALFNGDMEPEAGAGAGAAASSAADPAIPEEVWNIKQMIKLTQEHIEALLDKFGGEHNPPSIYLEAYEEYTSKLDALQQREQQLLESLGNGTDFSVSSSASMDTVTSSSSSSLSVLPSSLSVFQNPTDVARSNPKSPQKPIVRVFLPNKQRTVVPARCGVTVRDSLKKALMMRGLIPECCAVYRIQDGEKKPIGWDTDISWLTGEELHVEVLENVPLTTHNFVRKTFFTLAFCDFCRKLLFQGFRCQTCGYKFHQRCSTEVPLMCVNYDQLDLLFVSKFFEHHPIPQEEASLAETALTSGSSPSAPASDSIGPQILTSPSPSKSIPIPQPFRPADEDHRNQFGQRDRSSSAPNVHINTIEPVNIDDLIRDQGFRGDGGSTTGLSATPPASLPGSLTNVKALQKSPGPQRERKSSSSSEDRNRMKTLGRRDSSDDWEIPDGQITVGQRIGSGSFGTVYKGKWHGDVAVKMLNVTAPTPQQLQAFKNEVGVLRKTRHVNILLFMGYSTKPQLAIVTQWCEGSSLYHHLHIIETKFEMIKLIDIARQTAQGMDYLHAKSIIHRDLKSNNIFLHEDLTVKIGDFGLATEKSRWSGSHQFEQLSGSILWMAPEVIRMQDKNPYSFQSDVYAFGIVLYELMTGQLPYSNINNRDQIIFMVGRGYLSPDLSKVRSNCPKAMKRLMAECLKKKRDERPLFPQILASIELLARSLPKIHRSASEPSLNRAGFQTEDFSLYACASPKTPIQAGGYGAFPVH

On to `CO[C@@H]1CCN(S(=O)(=O)Nc2ccc(F)c(Nc3ccc4ncn(C)c(=O)c4c3Cl)c2Cl)C1` [Example 6, (R)-N-(2-chloro-4-fluoro-3-((5-chloro-3-methyl-4-oxo-3,4-dihydroquinazolin-6-yl)amino)phenyl)-3-methoxypyrrolidine-1-sulfonamide], for which the results for the IC50 (in data set [1]; in the data set on A375 cells; in the data set on H1755 cells) were 13 nM, 6 nM and 66 nM, respectively. Besides, the Papp (commonly the rate of passage across a membrane or cell layer, normalised by area and donor concentration) at 2 h, 1 µM in data set [2] is 27 ×10⁻⁶ cm/s. Also, the efflux ratio – broadly, the permeability from basolateral to apical divided by that in the opposite direction, in the common usage – at 2 h, 1 µM on P-gp (MDR1) was determined as 1.9; on BCRP it was 1.3. Also, the Kp in data set [3] is 0.87 to 1.76.
On to `Cn1cnc2ccc(Nc3c(F)ccc(NS(=O)(=O)N4CCCC4)c3Cl)c(F)c2c1=O` [Example 7, N-(2-chloro-4-fluoro-3-((5-fluoro-3-methyl-4-oxo-3,4-dihydroquinazolin-6-yl)amino)phenyl)pyrrolidine-1-sulfonamide trifluoroacetate], for which the values for the half-inhibitory concentration (IC50) (in data set [1]; in the data set on A375 cells; in the data set on H1755 cells) were 12 nM, 5 nM and 31 nM, respectively. Further, the Papp at 2 h, 1 µM in data set [2] turned out to be 29 ×10⁻⁶ cm/s. Further, the efflux ratio at 2 h, 1 µM on P-gp (MDR1) turned out to be 1.7; on BCRP, 2.2. For the same molecule, the Kp in data set [3] was 0.37 to 0.61.
As to `Cn1cnc2ccc(Nc3c(F)ccc(NS(=O)(=O)N4CC5CC4C5)c3Cl)c(Cl)c2c1=O` [Example 9, N-(2-chloro-3-((5-chloro-3-methyl-4-oxo-3,4-dihydroquinazolin-6-yl)amino)-4-fluorophenyl)-2-azabicyclo[2.1.1]hexane-2-sulfonamide trifluoroacetate], the IC50 – broadly, the concentration needed to halve the response being measured – in data set [1] was 7 nM; with A375 cells it was 14 nM; in the data set with H1755 cells it was 85 nM. This molecule yielded a Papp at 2 h, 1 µM in data set [2] of 29 ×10⁻⁶ cm/s. For the same molecule, the efflux ratio at 2 h, 1 µM on P-gp (MDR1) and at BCRP was 1.1 each time. In addition, the Kp in data set [3] lay within 0.36 to 0.4.
As to `Cn1cnc2ccc(Nc3c(F)ccc(NS(=O)(=O)N4CCCC4)c3Cl)c(Cl)c2c1=O` [Example 12, N-(2-chloro-3-((5-chloro-3-methyl-4-oxo-3,4-dihydroquinazolin-6-yl)amino)-4-fluorophenyl)pyrrolidine-1-sulfonamide trifluoroacetate], the IC50 in data set [1] was 7 nM; with A375 cells, 8 nM; in the data set on H1755 cells it was 97 nM. The Papp at 2 h, 1 µM in data set [2] was 28 ×10⁻⁶ cm/s. Also, the efflux ratio at 2 h, 1 µM on P-gp (MDR1) turned out to be 1.1; at BCRP, 0.9. In addition, the Kp in data set [3] is 0.34 to 0.39.
For the molecule `Cn1cnc2ccc(Nc3c(F)ccc(NS(=O)(=O)N4CC5CC5C4)c3Cl)c(Cl)c2c1=O` (centres unmarked) [Example 17, N-(2-chloro-3-((5-chloro-3-methyl-4-oxo-3,4-dihydroquinazolin-6-yl)amino)-4-fluorophenyl)-3-azabicyclo[3.1.0]hexane-3-sulfonamide], the values for the half-inhibitory concentration (IC50) (in data set [1]; in the data set with A375 cells; in the data set on H1755 cells) were 4 nM, 7 nM and 80 nM, respectively. Moreover, the apparent permeability (Papp) at 2 h, 1 µM in data set [2] was 24 ×10⁻⁶ cm/s. In addition, the efflux ratio at 2 h, 1 µM at P-gp (MDR1) was 1.3; at BCRP, 1.1. Further, in data set [3], the Kp was 0.61 to 0.64.
Consider `Cn1cnc2ccc(Nc3c(F)ccc(NS(=O)(=O)N4CC(F)(F)C4)c3Cl)c(F)c2c1=O` [Example 136, N-(2-chloro-4-fluoro-3-((5-fluoro-3-methyl-4-oxo-3,4-dihydroquinazolin-6-yl)amino)phenyl)-3,3-difluoroazetidine-1-sulfonamide], for which the concentration for half-maximal inhibition (IC50) in data set [1] came out at 6 nM; with A375 cells, 7 nM; with H1755 cells, 89 nM. This molecule also came in with an apparent permeability (Papp) at 2 h, 1 µM in data set [2] of 24 ×10⁻⁶ cm/s. The efflux ratio at 2 h, 1 µM came out at 3 at P-gp (MDR1) and 18.3 at BCRP.
`Cn1cnc2ccc(Nc3c(F)ccc(NS(=O)(=O)N4CC(COC(F)F)C4)c3Cl)c(Cl)c2c1=O` [Example 138, N-(2-chloro-3-((5-chloro-3-methyl-4-oxo-3,4-dihydroquinazolin-6-yl)amino)-4-fluorophenyl)-3-((difluoromethoxy)methyl)azetidine-1-sulfonamide trifluoroacetate]: the half-maximal inhibitory concentration (IC50) in data set [1] is 3 nM; with A375 cells it was 6 nM; with H1755 cells it was 26 nM. The molecule also registered a Papp at 2 h, 1 µM in data set [2] of 33 ×10⁻⁶ cm/s. For the same molecule, the efflux ratio at 2 h, 1 µM on P-gp (MDR1) and at BCRP was 3.1 each time.
Take `Cc1c(Nc2c(F)ccc(NS(=O)(=O)N3CC4C(F)C4C3)c2Cl)ccc2ncn(C)c(=O)c12` (centres unmarked) [Example 148, N-(2-chloro-3-((3,5-dimethyl-4-oxo-3,4-dihydroquinazolin-6-yl)amino)-4-fluorophenyl)-6-fluoro-3-azabicyclo[3.1.0]hexane-3-sulfonamide]: the IC50 in data set [1] amounted to 27 nM; in the data set with A375 cells, 426 nM; with H1755 cells, 854 nM. In data set [2], this molecule registered a Papp at 2 h, 1 µM of 22 ×10⁻⁶ cm/s. For the same molecule, the efflux ratio at 2 h, 1 µM is 2.4 at P-gp (MDR1) and 1.8 at BCRP.
For the molecule `Cc1c(Nc2c(F)ccc(NS(=O)(=O)N3CC4CC4(F)C3)c2Cl)ccc2ncn(C)c(=O)c12` (centres unmarked) [Example 149, N-(2-chloro-3-((3,5-dimethyl-4-oxo-3,4-dihydroquinazolin-6-yl)amino)-4-fluorophenyl)-1-fluoro-3-azabicyclo[3.1.0]hexane-3-sulfonamide], the IC50 in data set [1] amounted to 8 nM; with A375 cells it was 108 nM; in the data set on H1755 cells, 337 nM. The apparent permeability coefficient (Papp) at 2 h, 1 µM in data set [2] is 25 ×10⁻⁶ cm/s. Besides, the values for the efflux ratio at 2 h, 1 µM at P-gp (MDR1) and at BCRP were 1.2 and 3.2, respectively.
As to `Cc1c(Nc2cc(F)cc(NS(=O)(=O)N3CCCC3)c2Cl)ccc2ncn(C)c(=O)c12` [Example 150, N-(2-chloro-3-((3,5-dimethyl-4-oxo-3,4-dihydroquinazolin-6-yl)amino)-5-fluorophenyl)pyrrolidine-1-sulfonamide], the IC50 in data set [1] came to 18 nM; in the data set on A375 cells, 342 nM; with H1755 cells, 548 nM. Moreover, the apparent permeability coefficient (Papp) at 2 h, 1 µM in data set [2] was found to be 27 ×10⁻⁶ cm/s. Further, the efflux ratio at 2 h, 1 µM is 1.3 on P-gp (MDR1) and 1.4 at BCRP.
In the case of `Cc1c(Nc2cc(F)cc(NS(=O)(=O)N3CC[C@@H](F)C3)c2Cl)ccc2ncn(C)c(=O)c12` [Example 151, (R)-N-(2-chloro-3-((3,5-dimethyl-4-oxo-3,4-dihydroquinazolin-6-yl)amino)-5-fluorophenyl)-3-fluoropyrrolidine-1-sulfonamide], the 50% inhibitory concentration (IC50) in data set [1] was found to be 14 nM; in the data set with A375 cells, 283 nM; in the data set with H1755 cells it was 538 nM. For the same molecule, the Papp at 2 h, 1 µM in data set [2] amounted to 28 ×10⁻⁶ cm/s. In addition, the efflux ratio at 2 h, 1 µM is 1.5 on P-gp (MDR1) and 1.8 at BCRP.
Regarding `CO[C@@H]1CCN(S(=O)(=O)Nc2cc(F)cc(Nc3ccc4ncn(C)c(=O)c4c3C)c2Cl)C1` [Example 152, (R)-N-(2-chloro-3-((3,5-dimethyl-4-oxo-3,4-dihydroquinazolin-6-yl)amino)-5-fluorophenyl)-3-methoxypyrrolidine-1-sulfonamide], the IC50 is 29 nM in data set [1], 305 nM in the data set with A375 cells and 329 nM in the data set with H1755 cells. Also, the Papp at 2 h, 1 µM in data set [2] stood at 37 ×10⁻⁶ cm/s. The efflux ratio at 2 h, 1 µM at P-gp (MDR1) was 1.3; at BCRP it was 1.4.
Consider `Cc1c(Nc2cc(F)cc(NS(=O)(=O)N3CCCC3)c2F)ccc2ncn(C)c(=O)c12` [Example 154, N-(3-((3,5-dimethyl-4-oxo-3,4-dihydroquinazolin-6-yl)amino)-2,5-difluorophenyl)pyrrolidine-1-sulfonamide], for which the values for the IC50 (in data set [1]; in the data set with A375 cells; in the data set on H1755 cells) were 28 nM, 404 nM and 879 nM, respectively. In data set [2], this molecule showed a Papp at 2 h, 1 µM of 26 ×10⁻⁶ cm/s. For the same molecule, the efflux ratio at 2 h, 1 µM is 1.4 on P-gp (MDR1) and 1.3 at BCRP.

Source of the values: US12303509B2, “Compounds for the treatment of BRAF-associated diseases and disorders” (Pfizer Inc., priority 2020, dated 2025).
